{"source": "patent US9873705B2", "about": "“Vinylogous thioester compounds and methods of use” (THE TRUSTEES OF DARTMOUTH COLLEGE, priority 2015, dated 2018)", "key": {"U87-MG cells": {"system": "U87-MG cells", "test": "U87-MG cell viability, alamarBlue, washout", "assay_type": "cell-based, human", "conditions": "2 hour treatment then washout compared to 72 hour treatment; 0 to 20 μM", "procedure": "Growth inhibition assays as described above were performed on ira2Δ yeast cells and NF1-deficient glioblastoma cells. Log-phase yeast were grown at 30° C. starting at an OD600 of 0.05 in 96-well plates with Y102 at concentrations ranging from 0 to 100 μM. Following 18 h treatment, OD600 was measured using a THERMOmax (Molecular Devices) microplate reader and SOFTmax Pro 4.3 LS software. Results were plotted as a percentage compared to DMSO control using GraphPad Prism software. Graph represents an average of three experiments with four technical replicates per experiment (FIG. 2A). In a similar experiment U87-MG cells were plated at a concentration of 5,000 cells/well into 96-well plates and allowed to adhere overnight. The following day, cells were treated with Y102 at concentrations ranging from 0 to 20 μM for up to 72 h. For treatments less than 72 h, treatment media was removed at the indicated time points and replaced with normal growth medium. Three hours prior to collection, alamarBlue (Thermo Scientific) was added to a final concentration of 5% v/v. AlamarBlue fluorescence was determined with a Spectramax M2 (Molecular Devices) plate reader at an excitation of 544 nm and an emission of 590 nm using SoftMax Pro 3 software. Results were plotted as a percentage compared to DMSO control using GraphPad Prism software (FIG. 2B). […]"}, "[1]": {"system": "mitochondrial marker Tom20 in U87-MG cells", "test": "Tom20 flow cytometry (mitochondrial fluorescence)", "assay_type": "cell-based, human", "conditions": "20 h, 2 or 2.75 μM", "procedure": "The data for FIG. 8 was obtained as follows: U87-MG cells were plated at a concentration of 500,000 cells/well in a 6-well plate and allowed to adhere overnight. Cells were treated for 4 h with DMSO, followed by a 20 h cotreatment with DMSO, 2 μM Y102, 2.75 μM Y102, or 50 μM HCQ. Following treatment, cells were harvested using 0.25% trypsin, rinsed with PBS, and fixed for 20 minutes at 4° C. using BD Cytofix/Cytoperm fixation and permabilization solution (BD Biosciences). Following 2 washes with BD Perm/Wash buffer (BD Biosciences), cells were stained for 30 minutes at 4° C. in the dark for the mitochondrial marker Tom20 using anti-Tom20 FL-145 (Santa Cruz, 1:200). Following an additional 2 washes with BD Perm/Wash buffer, cells were stained with goat anti-rabbit 488 (Jackson ImmunoResearch Laboratories) secondary antibody for 30 minutes at 4° C. in the dark. Cells were washed twice with BD Perm/Wash buffer, resuspended in 0.5 mL PBS, and filtered prior to analysis. The cells were transferred to flow cytometry tubes and analyzed using a MacsQuant VYB 8-color flow cytometer. Tom20 fluorescence was detected using the B1-A (FITC) channel. 35,000 events/sample were collected and cellular debris was gated out of the dataset. Histograms were generated using the FlowLogic flow cytometry analysis software package."}}, "note": "Entries after “also recorded” stand apart in the source; their conditions may differ."}
{"smiles": "Cn1cnnc1S/C=C/C(=O)c1ccc(F)cc1", "note": "[Y102]", "values": [{"measurement": "reversibility of effect on U87-MG cell viability", "setting": "U87-MG cells", "value": "irreversible"}, {"measurement": "mitochondrial fluorescence / accumulation (Tom20)", "setting": "[1]", "value": "increase in mitochondrial fluorescence; also recorded: accumulation of the mitochondria"}]}
